From patent US9487489B2, “Halogen-substituted pyrazole derivatives as pest-control agents” (BAYER CROPSCIENCE AKTIENGESELLSCHAFT, priority 2013, dated 2016)

How the values were obtained:
[1] = system: larvae of the mustard beetle (Phaedon cochleariae); assay: Phaedon cochleariae spray test (PHAECO); type: in vivo; conditions: Chinese cabbage leaf discs, after 7 days
In short: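 Compound dissolved in acetone/dimethylformamide with alkylaryl polyglycol ether emulsifier, made up in water containing 1000 ppm emulsifier, then diluted to test concentrations and sprayed against mustard beetle larvae. Efficacy (% larvae killed) scored after 7 days.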

[2] = system: adult dog ticks (Rhipicephalus sanguineus); assay: Rhipicephalus sanguineus in vitro contact test with adult brown dog ticks (T2); conditions: after 48 h
Description: T2. Rhipicephalus sanguineus-in vitro Contact Tests with Adult Brown Dog Ticks
For the coating of the test tubes, initially 9 mg of active compound are dissolved in 1 ml of acetone p.a. and then diluted with acetone p.a. to the desired concentration. By turning and rocking on an orbital shaker (2 h of rocking rotation at 30 rpm), 250 μl of the solution are distributed homogeneously on the internal walls and the floor of a 25 ml test tube. At 900 ppm active compound solution and 44.7 cm^2 internal surface, an area dose of 5 μg/cm^2 is achieved for homogeneous distribution.
After evaporation of the solvent, the tubes are populated with 5-10 adult dog ticks (Rhipicephalus sanguineus), sealed with a perforated plastic lid and incubated in a horizontal position in the dark at room temperature and ambient humidity. After 48 h, the efficacy is determined. To this end, the ticks are knocked to the floor of the tube and incubated on a hotplate at 45-50° C. for at most 5 min Ticks which remain motionless on the floor or move in an uncoordinated manner such that they are not able to deliberately avoid the heat by climbing upwards are considered to be dead or moribund.
An efficacy of 100% means that all ticks were dead or moribund. 0% efficacy means that none of the ticks had been damaged.

[3] = system: engorged adult female cattle ticks (Boophilus microplus); assay: Boophilus microplus injection test (BOOPMI Inj); type: in vivo; conditions: application rate 20 μg/animal; injection into abdomen; assessed after 7 days
In short: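 DMSO solution of compound (1 μl) injected into the abdomen of 5 engorged adult female ticks, which are then held in a climate-controlled room. After 7 days, efficacy is scored from laying of fertile eggs, with unclear eggs kept until larval hatch (~42 days); 100% means no fertile eggs, 0% all fertile.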

[4] = system: adult houseflies (Musca domestica); assay: Musca domestica test (MUSCDO); type: in vivo; conditions: application rate 100 ppm; after 2 days
Description: F. Musca domestica Test (MUSCDO)
Solvent: dimethyl sulphoxide
To produce a suitable preparation of active compound, 10 mg of active compound are mixed with 0.5 ml of dimethyl sulphoxide, and the concentrate is diluted with water to the desired concentration.
Vessels containing a sponge treated with sugar solution and the active compound preparation of the desired concentration are populated with 10 adult houseflies (Musca domestica).
After 2 days, the kill in % is determined. 100% means that all of the flies have been killed; 0% means that none of the flies have been killed.

[5] = system: caterpillars of the armyworm (Spodoptera frugiperda); assay: Spodoptera frugiperda spray test (SPODFR); type: in vivo; conditions: maize leaf discs, after 7 days
In short: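 Maize leaf discs sprayed with compound in acetone/DMF with alkylaryl polyglycol ether emulsifier (1000 ppm) in water, dried, then infested with armyworm caterpillars. Mortality (%) scored after 7 days; 100% = all caterpillars killed, 0% = none killed.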

[6] = system: adult cat fleas (Ctenocephalides felis); assay: Ctenocephalides felis oral test (CTECFE); type: in vivo; conditions: application rate 100 ppm in citrated cattle blood; after 2 days
In short: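 About 20 unfed adult cat fleas fed through parafilm membrane on citrated cattle blood containing compound (DMSO stock diluted in blood to test concentration). Kill % scored after 2 days (100% = all fleas dead).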

[7] = system: L1 larvae of the Australian sheep blowfly (Lucilia cuprina); assay: Lucilia cuprina test (LUCICU); type: in vivo; conditions: application rate 100 ppm; after 2 days
In short: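 About 20 L1 larvae placed in a vessel with minced horsemeat plus compound (DMSO concentrate diluted with water to the desired concentration). Kill in % scored after 2 days, 100% meaning all larvae dead.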

[8] = logP determination by HPLC on a reversed-phase column (C18), EEC Directive 79/831 Annex V.A8; type: physicochemical; conditions: HPLC on reversed-phase column (C18), acetonitrile/water with formic acid, EEC Directive 79/831 Annex V.A8
In short: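 Retention on a C18 reversed-phase column (Zorbax Eclipse Plus, 1.8 micron) was used, eluting with acetonitrile/water, each containing formic acid. The gradient ran from 10% to 95% acetonitrile over 4.25 min, then held 1.25 min, at 55° C and 2.0 ml/min, with MS detection.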

[9] = system: green peach aphid (Myzus persicae); assay: Myzus persicae spray test (MYZUPE); type: in vivo; conditions: application rate 100 g/ha; Chinese cabbage leaf discs; after 6 days
Description: G. Myzus persicae-spray Test (MYZUPE)
Solvents: 78 parts by weight of acetone
• 1.5 parts by weight of dimethylformamide Emulsifier: alkylaryl polyglycol ether
To produce a suitable preparation of active compound, 1 part by weight of active compound is dissolved using the stated parts by weight of solvent and made up with water comprising an emulsifier concentration of 1000 ppm until the desired concentration is reached. To produce further test concentrations, the preparation is diluted with emulsifier-containing water.
Discs of Chinese cabbage leaves (Brassica pekinensis) infested by all stages of the green peach aphid (Myzus persicae) are sprayed with an active compound preparation of the desired concentration.
After 6 days, the efficacy in % is determined 100% here means that all of the aphids have been killed; 0% means that no aphids have been killed.

[10] = system: greenhouse red spider mite (Tetranychus urticae); assay: Tetranychus urticae spray test, OP-resistant (TETRUR); type: in vivo; conditions: bean leaf discs, after 6 days
In short: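 Bean leaf discs carrying all stages of OP-resistant Tetranychus urticae were sprayed with compound formulated in acetone/dimethylformamide and diluted in water with 1000 ppm alkylaryl polyglycol ether emulsifier. Mortality (% efficacy, 100% = all mites killed) scored after 6 days.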

[11] = system: adult cat fleas (Ctenocephalides felis); assay: Ctenocephalides felis in vitro contact test with adult cat fleas (T1); conditions: application rate 5 μg/cm^2; after 48 h
In short: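 Test compound was dissolved in acetone p.a. (9 mg per 1 ml) and diluted as needed. 250 μl was spread evenly over the inner walls and floor of a 25 ml test tube by rotating on an orbital shaker for 2 h at 30 rpm. Once the solvent evaporated, 5-10 adult Ctenocephalides felis were added. Tubes were capped with a perforated plastic lid and kept horizontal at room temperature and ambient humidity.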

Structure (SMILES): Cn1nc(C(F)(F)C(F)(F)F)c(C(F)(F)F)c1-n1cc(-c2cc(C(=O)NC3CC3)cc(F)c2F)cn1 [Ic-61]
- efficacy in % ([1]; application rate 500 g/ha): 100%
- efficacy (dead or moribund ticks) ([2]; application rate 5 μg/cm^2): 80%
- efficacy (laying of fertile eggs) [3]: 100%
- efficacy (kill in %) [4]: 80%
- efficacy in % ([5]; application rate 100 g/ha): 100%
- efficacy (kill in %) [6]: 100%
- efficacy (kill in %) [7]: 100%

Structure (SMILES): Cn1nc(C(F)(F)C(F)(F)F)c(C=O)c1-n1cc(-c2ccc(Cl)c(C(=O)NC3(C#N)CC3)c2)cn1 [Ic-121]
- efficacy in % ([1]; application rate 100 g/ha): 100%
- logP [8]: 3.09
- efficacy in % [9]: 100%
- efficacy in % ([10]; application rate 100 g/ha): 100%

Structure (SMILES): Cn1nc(C(F)(F)C(F)(F)F)c(C(F)(F)F)c1-n1cc(-c2cc(C(=O)NC3CC3)cc(C(F)(F)F)c2)cn1 [Ic-59]
- efficacy in % ([1]; application rate 500 g/ha): 100%
- efficacy (dead or moribund ticks) ([2]; application rate 1 μg/cm^2): 100%
- efficacy (laying of fertile eggs) [3]: 100%
- efficacy in % ([10]; application rate 100 g/ha): 90%
- efficacy (kill in %) [4]: 100%
- efficacy in % ([5]; application rate 500 g/ha): 100%
- efficacy (kill in %) [6]: 100%
- efficacy (kill in %) [7]: 100%

Structure (SMILES): Cn1nc(C(F)(F)C(F)(F)F)c(C(F)(F)F)c1-n1cc(-c2ccc(Cl)c(C(=O)NC3CC3)c2F)cn1 [Ic-106]
- efficacy in % ([1]; application rate 500 g/ha): 100%
- efficacy (dead or moribund ticks) ([2]; application rate 5 μg/cm^2): 100%
- efficacy (laying of fertile eggs) [3]: 100%
- efficacy (kill in %) [4]: 100%
- efficacy in % ([5]; application rate 500 g/ha): 83%
- efficacy (kill in %) [6]: 100%
- efficacy (kill in %) [7]: 100%

Structure (SMILES): COc1ccc(-c2cnn(-c3c(C(F)(F)F)c(C(F)(F)C(F)(F)F)nn3C)c2)cc1C(=O)NC1(C#N)CC1 [Ic-67]
- efficacy in % ([1]; application rate 100 g/ha): 100%
- efficacy (dead or moribund ticks) ([2]; application rate 1 μg/cm^2): 80%
- logP [8]: 3.77
- efficacy (laying of fertile eggs) [3]: 100%
- efficacy in % ([10]; application rate 100 g/ha): 100%
- efficacy (kill in %) [4]: 95%
- efficacy (kill in %) [6]: 100%
- efficacy (kill in %) [7]: 100%

Structure (SMILES): CC(CC1CC1)NC(=O)c1cc(-c2cnn(-c3c(C(F)(F)F)c(C(F)(F)C(F)(F)F)nn3C)c2)ccc1Cl (stereo not shown) [Ic-161]
- efficacy in % ([1]; application rate 500 g/ha): 100%
- efficacy (dead or moribund ticks) ([2]; application rate 1 μg/cm^2): 80%
- efficacy (dead or moribund ticks) ([2]; application rate 5 μg/cm^2): 100%
- efficacy (laying of fertile eggs) [3]: 100%
- efficacy in % ([10]; application rate 500 g/ha): 100%
- efficacy (kill in %) [4]: 80%
- efficacy in % ([5]; application rate 500 g/ha): 100%
- efficacy (kill in %) [6]: 100%
- efficacy (kill in %) [7]: 100%

Structure (SMILES): Cn1nc(C(F)(F)C(F)(F)F)c(C(F)(F)F)c1-n1cc(-c2cc(C(=O)NC3CC3)ccc2Cl)cn1 [Ic-46]
- efficacy in % ([1]; application rate 500 g/ha): 100%
- efficacy (dead or moribund ticks) ([2]; application rate 1 μg/cm^2): 100%
- efficacy (laying of fertile eggs) [3]: 100%
- efficacy (kill in %) [4]: 100%
- efficacy in % ([5]; application rate 500 g/ha): 100%
- efficacy (kill in %) [6]: 100%
- efficacy (kill in %) [7]: 100%

Structure (SMILES): Cn1nc(C(F)(F)C(F)(F)F)c(C(F)(F)F)c1-n1cc(-c2cc(Cl)cc(C(=O)NC3(C#N)CC3)c2)cn1 [Ic-43]
- efficacy in % ([1]; application rate 500 g/ha): 100%
- efficacy (dead or moribund ticks) ([2]; application rate 1 μg/cm^2): 100%
- efficacy (laying of fertile eggs) [3]: 100%
- efficacy (kill in %) [4]: 100%
- efficacy in % ([5]; application rate 500 g/ha): 100%
- efficacy (kill in %) [6]: 100%
- efficacy (kill in %) [7]: 100%

Structure (SMILES): Cn1nc(C(F)(F)C(F)(F)F)c(C(F)(F)F)c1-n1cc(-c2ccc(F)c(C(=O)NC3CC3)c2F)cn1 [Ic-174]
- efficacy in % ([1]; application rate 500 g/ha): 100%
- efficacy (dead or moribund ticks) ([2]; application rate 1 μg/cm^2): 100%
- efficacy (dead or moribund ticks) ([2]; application rate 5 μg/cm^2): 100%
- efficacy (laying of fertile eggs) [3]: 100%
- efficacy (kill in %) [4]: 100%
- efficacy in % ([5]; application rate 500 g/ha): 100%
- efficacy (kill in %) [6]: 100%
- efficacy (kill in %) [7]: 100%

Structure (SMILES): Cn1nc(C(F)(F)C(F)(F)F)c(C(F)(F)F)c1-n1cc(-c2ccc(Cl)c(C(=O)Nc3ccc(Cl)cc3)c2)cn1 [Ic-25]
- efficacy in % ([1]; application rate 100 g/ha): 100%
- efficacy (dead or moribund ticks) ([2]; application rate 1 μg/cm^2): 100%
- efficacy (dead or moribund ticks) ([2]; application rate 5 μg/cm^2): 100%
- logP [8]: 4.93
- efficacy (laying of fertile eggs) [3]: 100%
- efficacy (kill in %) [4]: 90%
- efficacy in % ([5]; application rate 100 g/ha): 100%
- efficacy (kill in %) [6]: 95%
- efficacy (kill in %) [7]: 100%

Structure (SMILES): COc1ccc(-c2cnn(-c3c(C(F)(F)F)c(C(F)(F)C(F)(F)F)nn3C)c2)cc1C(=O)NC1CC1 [Ic-68]
- efficacy in % ([1]; application rate 100 g/ha): 100%
- efficacy (dead or moribund ticks) ([2]; application rate 1 μg/cm^2): 100%
- logP [8]: 3.86
- efficacy (laying of fertile eggs) [3]: 100%
- efficacy in % ([10]; application rate 100 g/ha): 100%
- efficacy (kill in %) [4]: 80%
- efficacy in % ([5]; application rate 100 g/ha): 83%
- efficacy (kill in %) [6]: 100%
- efficacy (kill in %) [7]: 100%
- efficacy (dead or moribund fleas) [11]: 100%

Structure (SMILES): Cn1nc(C(F)(F)C(F)(F)F)c(C(F)(F)F)c1-n1cc(-c2cc(C(=O)NC3(C#N)CC3)ncc2F)cn1 [Ic-73]
- efficacy in % ([1]; application rate 500 g/ha): 100%
- efficacy (dead or moribund ticks) ([2]; application rate 1 μg/cm^2): 80%
- efficacy (dead or moribund ticks) ([2]; application rate 5 μg/cm^2): 80%
- efficacy (laying of fertile eggs) [3]: 100%
- efficacy in % ([10]; application rate 100 g/ha): 100%
- efficacy (kill in %) [4]: 90%
- efficacy in % ([5]; application rate 100 g/ha): 100%
- efficacy in % ([5]; application rate 500 g/ha): 100%
- efficacy (kill in %) [6]: 100%
- efficacy (kill in %) [7]: 100%
